Assay results taken from PubChem BioAssay (NCI).
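Each compound was tested at five concentrations against cells in 96-well plates for 48 hours. GI50 = concentration required for 50% inhibition of growth. TGI denotes the concentration required for complete inhibition of growth.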

Experiments:
Assay in all cases: growth of human tumour cells (NCI), 48 h
U251 CNS = system: U251 CNS
SK-OV-3 ovarian = system: SK-OV-3 ovarian
BT-549 breast = system: BT-549 breast
NCI-H226 lung = system: NCI-H226 lung
M14 melanoma = system: M14 melanoma
NCI-H23 lung = system: NCI-H23 lung
HT29 colon = system: HT29 colon
COLO 205 colon = system: COLO 205 colon
SF-295 CNS = system: SF-295 CNS
MALME-3M melanoma = system: MALME-3M melanoma

SMILES | GI50 (U251 CNS) [nM] | TGI (U251 CNS) [µM] | GI50 (SK-OV-3 ovarian) [nM] | TGI (SK-OV-3 ovarian) [µM] | GI50 (BT-549 breast) [nM] | TGI (BT-549 breast) [µM] | GI50 (NCI-H226 lung) [nM] | TGI (NCI-H226 lung) [µM] | GI50 (M14 melanoma) [nM] | TGI (M14 melanoma) [µM] | GI50 (NCI-H23 lung) [nM] | TGI (NCI-H23 lung) [µM] | GI50 (HT29 colon) [nM] | TGI (HT29 colon) [µM] | GI50 (COLO 205 colon) [nM] | TGI (COLO 205 colon) [µM] | GI50 (SF-295 CNS) [nM] | TGI (SF-295 CNS) [µM] | GI50 (MALME-3M melanoma) [µM] | TGI (MALME-3M melanoma) [µM]
CN1CCC(=C(c2ccc(Cl)cc2)c2ccccn2)CC1 | > 100000 | > 100 | 61900 | > 100 | 79800 | > 100 | 90200 | > 100 | 19200 | 38.7 | > 100000 | > 100 | 78800 | > 100 | 31700 | > 100 | 37600 | > 100 | 40.9 | > 100
Cc1ccc(/C=C(/C#N)n2nnc3cccc(F)c32)cc1 | 489 | 14.4 | 931 | 55.1 | 634 | 8.99 | 1760 | 8.31 | 287 | 22.1 | 461 | 12 | 359 | 11.9 | 387 | 3.3 | 368 | 7.39 | 0.488 | 17.6
CN1C(=O)[C@@H](CC2CCCC2)N(C2CCCC2)c2nc(Nc3cc(Cl)c(O)c(Cl)c3)ncc21 | 21600 | 86.9 | 17100 | 75.9 | 18200 | 53.2 | 25000 | > 100 | 22200 | > 100 | 31300 | > 100 | 26700 | 88.3 | 23000 | 56.1 | 23300 | 81.9 | 20.7 | 75.2
CN(C)C/C=C/C(=O)Nc1ccc(C(=O)Nc2cccc(Nc3ncc(Cl)c(-c4c[nH]c5ccccc45)n3)c2)cc1 | 23.8 | > 38.2 | 120 | > 100 | 33.6 | 0.42 | 106 | 0.369 | 34.6 | 0.173 | 25.7 | 0.133 | 38.5 | 0.678 | 12.1 | 0.0562 | 155 | 0.475 | 0.0212 | 0.0873
CC(=O)NC(CCc1ccc(Cl)c(Cl)c1)c1cccc(O)c(=O)c1 (stereo not given) | 428 | 11.5 | 1430 | 17.4 | 803 | 12.8 | 633 | 14.2 | 434 | 3.09 | 1110 | 18.9 | 784 | 22 | 363 | 18.6 | 399 | 10 | 1.45 | 7.12
Cc1cc(NS(=O)(=O)c2ccc(-c3cnc(C4CC4)o3)cc2)ccc1Cl | 368 | 14.9 | 868 | 20.8 | 1060 | 16.6 | 985 | 17.5 | 192 | 15.9 | 570 | 15.6 | 191 | 3.89 | 305 | 5.8 | 99.5 | 2.57 | 12.1 | 26.5
